Values quoted from earlier work, collected in patent US20020010148A1, “Oral combinations of hydroxocobalamin and folic acid” (priority 1999, published 2002).

Tests used:
homocysteine levels = settings: 0.4 mg hydroxocobalamin alone or with 0.5 mg/day or 5 mg/day folic acid, oral
[1] = oral doses of 1 mg or more; without intrinsic factor; dose-dependent
vitamin B12 deficiency = settings: oral 1-2 mg/day; patients with pernicious anaemia

Compound: Nc1nc2ncc(CNc3ccc(C(=O)N[C@@H](CCC(=O)O)C(=O)O)cc3)nc2c(=O)[nH]1 [folic acid]
- contribution to lowering of homocysteine levels (homocysteine levels): main effect

Compound: C/C1=C2/[N-][C@H]([C@H](CC(N)=O)[C@@]2(C)CCC(=O)NC[C@@H](C)OP(=O)([O-])O[C@H]2[C@@H](O)[C@@H](n3cnc4cc(C)c(C)cc43)O[C@@H]2CO)[C@]2(C)N=C(/C(C)=C3N=C(/C=C4N=C1[C@@H](CCC(N)=O)C\4(C)C)[C@@H](CCC(N)=O)[C@]\3(C)CC(N)=O)[C@@H](CCC(N)=O)[C@]2(C)CC(N)=O.[Co+3].[OH-] [hydroxocobalamin]
- contribution to lowering of homocysteine levels (homocysteine levels): contributed little

Compound: Vitamin B12
- passive absorption, share of the oral dose [1]: 1-2%

Compound: cyanocobalamin
- adequacy of oral dosing to provide vitamin B12 (vitamin B12 deficiency): fully adequate
